Measurements from US11857560B2, “Pharmaceutical compositions comprising substituted nucleotides and nucleosides for treating viral infections” (priority 2013, dated 2024).

What was measured:
[1] = Cytotoxicity panel, HepG2; settings: human, HepG2 cells
[2] = tested on: Dengue Type 2; assay: Anti-Dengue virus cytoprotection assay, Huh-7 cells; settings: Huh-7, read-out: Dengue Type 2 Huh-7 Cells (EC50 uM)
[3] = Cytotoxicity panel, CEM; settings: human, CEM cells, Cytotoxicity (CC50 uM) CEM
[4] = Toxicity in Huh-7 cells (Dengue assay); settings: human, Huh-7 cells
[5] = Cellular toxicity in parallel with HCV replicon assay (XTT); settings: human
[6] = Cytotoxicity panel, Huh-7; settings: human, Huh-7 cells, Cytotoxicity (CC50 uM) Huh-7, Huh-7
[7] = tested on: Influenza A H1N1; assay: Antiviral activity, Influenza A H1N1; format: cell-based; settings: Influenza A virus, H1N1; read-out: Influenza A H1N1 EC50
[8] = tested on: Influenza A H5N1 (low path); assay: microbe, parasite or virus in culture; format: cell-based; settings: H5N1, read-out: Influenza A H5N1 (low path) EC50
[9] = tested on: Influenza B; assay: Antiviral activity, Influenza B; format: cell-based; settings: Influenza B virus, read-out: Influenza B EC50
[10] = tested on: RSV; assay: Antiviral activity, RSV; format: cell-based; settings: human respiratory syncytial virus
[11] = in vitro
[12] = tested on: SARS; assay: microbe, parasite or virus in culture; settings: Severe acute respiratory syndrome coronavirus, read-out: SARS EC50
[13] = tested on: Influenza A H3N2; assay: Antiviral activity, Influenza A H3N2; format: cell-based; settings: Influenza A virus, H3N2; read-out: Influenza A H3N2 EC50
[14] = Cytotoxicity panel, A204; format: cell-based; settings: human, A204 cells
[15] = Cytotoxicity panel, BxPC3; settings: human, BxPC3 cells
[16] = Cytotoxicity panel, H9c; format: cell-based; settings: rat, H9c cells
[17] = tested on: Huh-7; assay: Cytotoxicity panel, Huh-7; settings: read-out: Cytotoxicity (CC50 uM) Huh-7; Huh-7
[18] = Cytotoxicity in GT1b replicon cells; format: cell-based
[19] = Toxicity in Vero cells (Dengue assay); settings: African green monkey

SMILES | CC50 [1] [µM] | CC50 [3] [µM] | CC50 [6] [µM] | further results
CC(C)OC(=O)[C@H](C)NP(=O)(OC[C@@]1(N=[N+]=[N-])O[C@@H](n2ccc(=S)[nH]c2=O)[C@@H](O)C1O)Oc1ccccc1 (stereo partly drawn) [ENUC-02083-1] | > 400 | 229 | – | EC50 [2]: 4.82 µM; CC50 [4]: > 100 µM; CC50 at 72 h [5]: > 100 µM
CC(C)OC(=O)[C@H](C)NP(=O)(OC[C@H]1O[C@@H](n2ccc(=O)[nH]c2=[Se])[C@](C)(O)C1O)Oc1ccccc1 (stereo partly drawn) [ENUC-02058-1] | > 400 | – | > 100 | –
CC(C)OP1(=O)OC[C@H]2O[C@@H](n3ccc(=O)[nH]c3=O)C(F)[C@H]2O1 (stereo partly drawn) [EFVX- 01841] | – | – | – | EC50 [7]: > 100 µM; EC50 [8]: > 100 µM; EC50 [9]: > 100 µM; EC50 [10]: > 100 µM; CC50 [11]: > 89 µM; EC50 [12]: 70 µM; EC50 [13]: > 100 µM
C#C[C@]1(COP(=O)(N[C@@H](C)C(=O)OC(C)C)Oc2ccccc2)O[C@@H](n2ccc(=O)[nH]c2=S)[C@@H](O)C1O (stereo partly drawn) [ENUC-02069-1] | > 400 | > 400 | > 400 | EC50 [2]: > 100 µM; CC50 [4]: > 100 µM
CC(C)OC(=O)[C@H](C)NP(=O)(OC[C@H]1O[C@@H](n2ccc(=O)[nH]c2=O)[C@](C)(O)C1O)Oc1ccccc1 (stereo partly drawn) [ENUC-01982-1] | 159 | 150 | 65 | CC50 [14]: 124 µM; CC50 [15]: 157 µM; CC50 [16]: 31 µM
O=c1[nH]c(=S)ccn1[C@@H]1O[C@H](CO)C(O)[C@@H]1O (stereo partly drawn) [ENUC-01893-1] | – | – | – | CC50 at 72 h [5]: 45.7 µM
C[C@@]1(O)C(O)[C@@H](CO)O[C@H]1n1ccc(=O)[nH]c1=S (stereo partly drawn) [ENUC-01850-1] | > 400 | – | > 100 | CC50 [15]: > 100 µM
CC(C)OC(=O)[C@H](C)N[P@@](=O)(OC[C@H]1O[C@@H](n2ccc(=O)[nH]c2=S)[C@](C)(O)C1O)Oc1ccccc1 (stereo partly drawn) [ENUC-02024-1] | > 400 | > 400 | > 400 | –
CC(C)OC(=O)[C@H](C)N[P@@](=O)(OC[C@H]1O[C@@H](n2ccc(=O)[nH]c2=O)[C@](C)(F)C1O)Oc1ccccc1 (stereo partly drawn) [ENUC-02026-1] | > 400 | > 400 | > 400 | –
C[C@@]1(O)C(O)[C@@H](CO)O[C@H]1n1ccc(=S)[nH]c1=O (stereo partly drawn) [ENUC-01916-1] | > 400 | – | – | –
CC(C)OC(=O)[C@H](C)NP(=O)(OC[C@H]1O[C@@H](n2ccc(=O)[nH]c2=S)[C@](C)(O)C1O)Oc1ccccc1 (stereo partly drawn) [ENUC-01911-2] | – | – | – | CC50 [17]: > 400 µM; CC50 [18]: > 10 µM
C[C@@]1(O)C(O)[C@@H](COP(=O)(O)O)O[C@H]1n1ccc(=O)[nH]c1=S (stereo partly drawn) [ENUC-01984-1] | > 400 | > 400 | > 400 | CC50 at 72 h [5]: > 100 µM
C[C@@]1(F)C(O)[C@@H](CO)O[C@H]1n1ccc(=S)[nH]c1=O (stereo partly drawn) [ENUC-01946-1] | > 400 | > 400 | > 400 | –
C[C@@]1(O)C(O)[C@@H](CO)O[C@H]1n1ccc(=O)[nH]c1=S (stereo partly drawn) [ENUC-01850] | – | – | – | CC50 [4]: > 100 µM; CC50 [19]: > 100 µM
C[C@H](NP(=O)(O)OC[C@H]1O[C@@H](n2ccc(=O)[nH]c2=S)[C@](C)(O)C1O)C(=O)O (stereo partly drawn) [ENUC-01997-1] | > 400 | > 400 | > 400 | CC50 at 72 h [5]: > 100 µM
